Measurements published in PMC11684530 (ACS Omega, 2024).

Target: T1, COX-2 (cyclooxygenase-2) (Homo sapiens, UniProt P35354)
T1 sequence (P35354 18-604): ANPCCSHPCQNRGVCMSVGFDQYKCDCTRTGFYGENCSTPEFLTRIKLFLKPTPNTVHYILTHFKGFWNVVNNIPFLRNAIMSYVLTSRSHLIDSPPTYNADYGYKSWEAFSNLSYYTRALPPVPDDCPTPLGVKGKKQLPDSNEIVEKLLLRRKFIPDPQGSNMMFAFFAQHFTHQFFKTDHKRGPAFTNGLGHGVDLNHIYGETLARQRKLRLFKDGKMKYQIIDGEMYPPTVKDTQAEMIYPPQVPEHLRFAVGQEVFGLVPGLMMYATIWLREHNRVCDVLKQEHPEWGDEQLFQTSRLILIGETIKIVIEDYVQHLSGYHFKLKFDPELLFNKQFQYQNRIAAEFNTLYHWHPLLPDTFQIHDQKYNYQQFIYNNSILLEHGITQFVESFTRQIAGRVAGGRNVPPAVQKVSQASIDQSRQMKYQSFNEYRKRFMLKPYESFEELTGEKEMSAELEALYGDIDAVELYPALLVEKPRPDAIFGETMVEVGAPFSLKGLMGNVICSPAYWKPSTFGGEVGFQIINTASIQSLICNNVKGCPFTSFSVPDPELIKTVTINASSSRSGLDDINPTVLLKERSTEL
Assay: fluorometric COX-2 inhibitor screening kit
Assay type: biochemical

| SMILES | IC50 [µM] |
| --- | --- |
| O=c1cc(-c2ccccc2)oc2cc(O)cc(O)c12 [chrysin] | 18.5 |
| CC(C)=CCc1c(O)cc(O)c2c(=O)cc(-c3ccccc3)oc12 [compound 8, 5,7-Dihydroxy-8-(3-methylbut-2-en-1-yl)-2-phenyl-4H-chromen-4-one] | 6.76 |
| O=c1cc(-c2ccccc2)oc2cc(O)c(CCO)c(O)c12 [1a, 5,7-Dihydroxy-6-(2-hydroxyethyl)-2-phenyl-4H-chromen-4-one] | 9.63 |
